Reference: patent US20220106282A1, “TREATMENT FOR BREAST CANCER, INCLUDING TRIPLE-NEGATIVE BREAST CANCER” (priority 2018, published 2022)
“And” between values parts separate entries of the source, which are not always exact repeats. Equal entries are not always repeated.

How the values were obtained:
[1] = system: MDA-MB-231 line of cells of triple-negative breast cancer; assay: Cell growth inhibition, MDA-MB-231; type: cell-based; settings: Homo sapiens
[2] = system: FVB mice transgenic for HER-2/neu; assay: Acute oral toxicity, OECD 423 test; type: in vivo
[3] = Acute oral toxicity, OECD 423 test; type: in vivo; settings: female, FVB transgenic for HER-2/neu, mouse, in vivo, po, oral (i.g.), OECD 423
[4] = system: passaged human tumor of triple-negative breast cancer; assay: Animal models with passaged human triple-negative breast tumor; type: in vivo
[5] = system: patients having metastases spread into axillary lymph nodes; assay: Chemotherapy of patients with axillary lymph node metastases; type: in vivo, human
[6] = Hormonal effect: uterine body weight in tumor-bearing mice; type: in vivo, mouse
[7] = system: human MCF-7 cell culture (breast adenocarcinoma); assay: Proliferation of MCF-7 cells under sulfatase inhibition; type: cell-based; settings: concentration of 20 μg/ml
Description: (§1) The cells were seeded on Carrel vials at 50×10^4 cells per flask. To study the proliferative activity of the cells under conditions of sulfatase inhibition, 24 hours after seeding the culture medium […], and then these tumor cell lines were incubated for various periods of time (24 to 72 hrs). The inhibitor was dissolved in DMSO. […] To exclude the cytotoxic effect of DMSO, a control sample comprising DMSO without sulfatase inhibitor was prepared. To exclude nonspecific detrimental effects of the compounds, normal human skin fibroblasts were used. Then the cells were detached with the versene-trypsin solution (Biolot), plated onto Carrel vials containing a fresh complete culture medium. The cells were counted when untreated control cells reached the maximum cell density per unit of surface area of a culture flask (monolayer), and their number was set as 100%. The proliferative activity of all of the studied cell cultures exposed to sulfatase inhibitors was determined in triplicate.

[8] = system: normal human skin fibroblasts; assay: Growth of normal human skin fibroblasts (nonspecific effects); type: cell-based; settings: concentration of 20 μg/ml; cells having no estrogen receptors
Description: as §1, with “24” for “24 hours after seeding the culture medium”

For `C[C@H]1Oc2cc(OS(N)(=O)=O)ccc2[C@H]2CC[C@]3(C)C(=O)CCC[C@H]3[C@H]21` [compound of formula (1), 3-O-sulphamoyloxy-7β-methyl-D-homo-6-oxa-8α-estra-1,3,5(10)-trien-17a-one], the IC50 [1] was 4.8 µM, the “Lethal effects (dead/total)” value ([2]; 300 mg/kg single i.g. dose) was 0/6 and the Body weight, average ([2]; 300 mg/kg single i.g. dose, Day 1 (before administration)) was 28.7 g. The “Body weight, individual mice” value ([2]; 300 mg/kg single i.g. dose, Day 1 (before administration), listed as medicament) was 26.4 and 28.2 and 30.0 and 29.0 (2×) and 29.5, the Body weight, average ([2]; 300 mg/kg single i.g. dose, Day 2) was 28.8 g and the “Body weight, individual mice” value ([2]; 300 mg/kg single i.g. dose, Day 2, listed as medicament, in g (unit assumed)) was 26.4 and 28.0 and 30.8 and 29.6 and 28.6 and 29.2. For the same compound, the Body weight, average ([2]; 300 mg/kg single i.g. dose, Day 7) was 29.6 g, the “Body weight, individual mice” value ([2]; 300 mg/kg single i.g. dose, Day 7, listed as medicament, in g (unit assumed)) was 27.0 and 28.4 and 30.8 and 31.2 and 30.4 and 29.6 and the Body weight, average ([2]; 300 mg/kg single i.g. dose, Day 14) was 29.6 g. For the same compound, the “Body weight, individual mice” value ([2]; 300 mg/kg single i.g. dose, Day 14, listed as medicament, in g (unit assumed)) was 27.2 and 28.6 and 30.3 and 31.0 and 30.6 and 29.8, the “Lethal effects (dead/total)” value ([2]; 300 mg/kg single i.g. dose, listed as medicament) was “no animals deaths” and the “Average body weight, % from baseline” value ([2]; 300 mg/kg, Day 2) was “(0) %”. For the same compound, the “Average body weight, % from baseline” value ([2]; 300 mg/kg, Day 7) was “(3) %”, the “Average body weight, % from baseline” value ([2]; 300 mg/kg, Day 14) was “(3) %” and the “Visual signs of intoxication” value ([2]; 300 mg/kg, entire observation period) was “None of the animals exhibited visual signs of intoxication”. For the same compound, the “Clinical signs of intoxication” value ([2]; 2000 mg/kg) was “No clinical signs of intoxication were observed”, the “Lethal effects (dead/total)” value ([2]; 2000 mg/kg i.g.) was 0/6 and the Body weight, average ([2]; 2000 mg/kg i.g., Day 2) was 26.3 g. The Body weight, average ([2]; 2000 mg/kg i.g., Day 7) was 25.9 g, the Body weight, average ([2]; 2000 mg/kg i.g., Day 14) was 27.2 g and the “Average body weight, % from baseline” value ([2]; 2000 mg/kg, Day 2) was “(−3) %”. The “Average body weight, % from baseline” value ([2]; 2000 mg/kg, Day 7) was “(−4) %”, the “Decrease of body weight from the initial weight” value ([2]; 2000 mg/kg, Day 7) was 4% and the “Average body weight, % from baseline” value ([2]; 2000 mg/kg, Day 14) was “(0) %”. The “Macroscopic changes of the internal organs at autopsy” value ([2]; Day 15) was “no changes of the internal organs were detected”, the LD50 at 14 days [3] was at least 5000 mg/kg and the “Action compared to Tamoxifen and Letrozole” value [4] was “better action”. The Overall survival rate ([5]; as compared to the Tamoxifen treated group) was “increase the overall survival rate”, the “Prolongation of recurrence-free survival rate” value ([5]; as compared to the untreated group) was 11% and the Body weight ([6]; 20 mg/kg, all mice) was 30.2 ± 1.2 g. For the same compound, the Body weight ([6]; 20 mg/kg, estrous phase D) was 30.3 ± 1.8 g, the Body weight ([6]; 20 mg/kg, estrous phase E) was 30.1 ± 1.7 g and the Body weight ([6]; 100 mg/kg, all mice) was 30.3 ± 0.8 g. The Body weight ([6]; 100 mg/kg, estrous phase D) was 33.1 ± 4.5 g, the Body weight ([6]; 100 mg/kg, estrous phase E) was 29.6 ± 0.5 g and the “Proliferation of MCF-7 tumor cells” value [7] was “completely blocks the proliferation”. The “Growth of human skin fibroblasts” value [8] was “does not influence the growth”.
